In paper PMC8915833 (Proceedings of the National Academy of Sciences of the …, 2022):

Biological target: T1, PctA dCache_1 domain (Pseudomonas aeruginosa, UniProt G3XD24)
T1 sequence (G3XD24 32-276 limits assumed): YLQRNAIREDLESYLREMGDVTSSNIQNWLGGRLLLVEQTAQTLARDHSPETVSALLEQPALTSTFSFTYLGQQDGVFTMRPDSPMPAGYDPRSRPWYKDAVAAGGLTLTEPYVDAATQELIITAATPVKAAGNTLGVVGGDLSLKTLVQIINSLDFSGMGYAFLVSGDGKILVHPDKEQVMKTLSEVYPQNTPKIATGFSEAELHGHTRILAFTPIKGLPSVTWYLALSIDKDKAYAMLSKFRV
Assay: isothermal titration calorimetry
Assay type: binding

C[C@H](N)C(=O)O [L-Ala]
KD: Isothermal titration calorimetry study of L-Ala binding to the wild type and the mutated
